Earlier results as cited in article PMC6270976, “Pharmacokinetic Study in Mice of Galphimine-A, an Anxiolytic Compound from Galphimia glauca” (Molecules, 2014).
Entries after “also recorded” stand apart in the source; their conditions may differ. Like-named read-outs stand apart in the source and are kept apart here.

Legend:
[1] = cited from earlier work
[2] = design: method as in PMID 18452416; conditions: humans; cited from earlier work
[3] = design: method as in PMID 14758039; conditions: cited from earlier work

In the case of `COC(=O)[C@@]12CC[C@@]3(C)[C@@H]4C=CC(=O)OC[C@]4([C@@H](C)O)C[C@@H](O)[C@@H]3[C@@]1(C)CC[C@@]1(C)CC=C(C)C[C@]12O` [G–B, galphimine-B], the Anxiolytic activity ([1]; among the galphimines) is listed as “most active; also recorded: highest anxiolytic activity”.

For `COC(=O)[C@@]12CC[C@@]3(C)[C@@H]4C=CC(=O)OC[C@]4([C@@H](C)O)[C@@H](OC(C)=O)[C@@H](O)[C@@H]3[C@@]1(C)CC[C@@]1(C)CC=C(C)C[C@]12O` [G–E, galphimine-E], the Anxiolytic activity [1] is listed as “inactive”.

In the case of `CC1(C)[C@@H](O)CC[C@]2(C)[C@H]3C(=O)C=C4[C@@H]5C[C@@](C)(C(=O)O)CC[C@]5(C)CC[C@@]4(C)[C@]3(C)CC[C@@H]12` [glycyrrhetinic acid], the k10 [2] is given as 0.0012 min⁻¹, the “k10 (elimination rate constant)” value ([3]; mice, 100 mg/kg orally, one-compartment model) is given as 0.0006 min⁻¹ and the “AUC0→∞” value ([3]; oral administration in mice) is given as 2,454 µg·min·mL^−1.
